In patent publication US20260297118A1, “SUBSTITUTED PYRIMIDINONE AND AZAPYRIMIDINONE COMPOUNDS, COMPOSITIONS, AND USES THEREOF” (LAKEWOOD AMEDEX, INC., priority 2023, published 2026):
Like-named read-outs stand apart in the source and are kept apart here.

Key:
Type in all cases: cell-based
Details in all cases: pH 3, Mueller Hinton Broth, 18 to 24 hours
[1] = tested on: Staphylococcus aureus (43330); assay: MIC, broth microdilution, Staphylococcus aureus (43330)
Protocol: (§1) MIC testing is conducted using the broth (Mueller Hinton Broth) microdilution procedures relevant to each organism group as established by the Clinical and Laboratory Standards Institute (CLSI; 3-7). MIC plates are prepared in accordance with CLSI (3-7). To prepare the test plates, automated liquid handlers are used to conduct serial dilutions and liquid transfers. Automated liquid handlers utilized in this study include the Multidrop 384 (Labsystems, Helsinki, Finland) and the Biomek 2000 (Beckman Coulter, Fullerton CA). The solution is diluted to desired pH using 1 M Citric Acid or 1 M NaOH buffer. A standardized inoculum of each test organism is prepared per CLSI methods (3, 5-7) to equal a 0.5 McFarland standard in the appropriate media followed by an additional 1:20 dilution (1:10 for anaerobes).
(§2) The plates are then inoculated with 10 μL of the diluted 0.5 McFarland suspension using the Biomek 2000 from low to high drug concentration, resulting in a final concentration of approximately 5×10^5 CFU/mL per well. An un-inoculated plate is incubated for the purpose of assessing solubility of the drug in the test media. The plates are stacked 3 to 4 high, covered with a sterile lid on the top plate, and incubated for 18 to 24 hours according to CLSI. The MIC is recorded as the lowest concentration of respective compound that inhibited visible growth of the organism.

[2] = tested on: Escherichia coli (25922); assay: MIC, broth microdilution, Escherichia coli (25922)
Protocol: as §1, §2

[3] = tested on: Pseudomonas aeruginosa (27853); assay: MIC, broth microdilution, Pseudomonas aeruginosa (27853)
Protocol: as §1, §2

[4] = tested on: Candida albicans (22972); assay: MIC, broth microdilution, Candida albicans (22972)
Protocol: as §1, §2

| Compound | MIC ([1]; read-out: MIC) [mg/mL] | MIC ([2]; read-out: MIC) [mg/mL] | MIC ([3]; read-out: MIC) [mg/mL] | MIC ([4]; read-out: MIC) [mg/mL] | MIC [1] [mg/mL] | MIC [2] [mg/mL] | MIC [3] [mg/mL] | MIC [4] [mg/mL] |
| --- | --- | --- | --- | --- | --- | --- | --- | --- |
| CCCCCCOP(=O)(O)OC[C@H]1O[C@@H](n2ccc(N)nc2=O)C[C@@H]1O [LAI-002, ((2R,3S,5R)-5-(4-amino-2-oxopyrimidin-1(2H)-yl)-3-hydroxytetrahydrofuran-2-yl)methyl hexyl hydrogen phosphate] | 25 | 25 | 5 | 50 |  |  |  |  |
| Nc1ccn([C@H]2C[C@H](O)[C@@H](COP(=O)(O)OCCCC(F)(F)F)O2)c(=O)n1 [LAI-005, ((2R,3S,5R)-5-(4-amino-2-oxopyrimidin-1(2H)-yl)-3-hydroxytetrahydrofuran-2-yl)methyl (4,4,4-trifluorobutyl) hydrogen phosphate] | 50 | 25 | 25 |  |  |  |  |  |
| CCCCOP(=O)(O)OC[C@H]1O[C@@H](n2ccc(NC)nc2=O)C[C@@H]1O [LAI-009, butyl (((2R,3S,5R)-3-hydroxy-5-(4-(N-methylamino)-2-oxopyrimidin-1(2H)-yl)tetrahydrofuran-2-yl)methyl) hydrogen phosphate] | 25 | 25 | 5 | 50 |  |  |  |  |
| (2R,3S,5R)-5-(4-amino-2-oxopyridizin-1(2H)-yl)-3-hydroxytetrahydrofuran-2-methyl butyl phosphate [LAI-011] |  |  |  |  | 25 | 25 | 5 | 5 |
| CCCCCCCCOP(=O)(O)OC[C@H]1O[C@@H](n2ccc(N)nc2=O)C[C@@H]1O [LAI-001, ((2R,3S,5R)-5-(4-amino-2-oxopyrimidin-1(2H)-yl)-3-hydroxytetrahydrofuran-2-yl)methyl octyl hydrogen phosphate] | 20 | 20 | 20 | 20 |  |  |  |  |
| CC(C)COP(=O)(O)OC[C@H]1O[C@@H](n2ccc(N)nc2=O)C[C@@H]1O [LAI-003, ((2R,3S,5R)-5-(4-amino-2-oxopyrimidin-1(2H)-yl)-3-hydroxytetrahydrofuran-2-yl)methyl isobutyl hydrogen phosphate] | 20 | 20 | 20 | 20 |  |  |  |  |
| CC(C)CCOP(=O)(O)OC[C@H]1O[C@@H](n2ccc(N)nc2=O)C[C@@H]1O [LAI-004, ((2R,3S,5R)-5-(4-amino-2-oxopyrimidin-1(2H)-yl)-3-hydroxytetrahydrofuran-2-yl)methyl isopentyl hydrogen phosphate] | 50 | 25 | 5 | 50 |  |  |  |  |
